Bridges are numbered along the chain shown (N, C = ends). Where no end group is shown, it is not given here.
How the values were obtained:
[1] = test system: STREX-del mutant channel (SAKcaC with STREX-exon removed); conditions: earlier work of the authors; cited from earlier work
Description: We next examined whether the two types of peptides function on the mechano-insensitive mutant channel. We have previously identified a mechano-insensitive-mutant (STREX-del) channel, of which the mechanosensor domain (STREX-exon) in SAKcaC was removed ([37], [38]). […] To investigate whether the synthetic short peptides act similarly to GsMTx4, we performed the same experiments to examine the effects of the two types of sh ...

[2] = target: T1, stretch-activated BK channel (SAKcaC, SAKca-WT) (Gallus gallus, UniProt Q8AYS8); test: Single-channel excised inside-out patch clamp of native SAKcaC from ventricular myocytes, peptide backfilled in the pipette; assay type: cell-based, chick; conditions: for slope factor K^−1 of Po–V relationship (Boltzmann fit): control (no peptide) 25.1 ±1.16; for slope factor K^−1 of Po–V relationship (Boltzmann fit) / V1/2 of Po–V relationship (Boltzmann fit) / channel open probability Po with 50 nM peptide / channel open probability Po with 100 nM peptide / channel open probability Po with 0 nM peptide (control of the dose series) / Hill cofactor of dose–response curve: ventricular myocytes; for V1/2 of Po–V relationship (Boltzmann fit): control (no peptide) −91.5 ± 1.36 mV, n = 6 to 9; for channel open probability Po with 50 nM peptide / channel open probability Po with 100 nM peptide: 25 min following backfilling; for channel open probability Po with 50 nM peptide / channel open probability Po with 100 nM peptide / channel open probability Po with 0 nM peptide (control of the dose series): [Ca2+]i 1 mM, single sample patch
T1 construct: Native SAKcaCs were recorded from ventricular myocytes; endogenous in cells; host or cells: isolated chick ventricular myocytes
T1 sequence (Q8AYS8 1-1195 isoform Q8AYS8-3): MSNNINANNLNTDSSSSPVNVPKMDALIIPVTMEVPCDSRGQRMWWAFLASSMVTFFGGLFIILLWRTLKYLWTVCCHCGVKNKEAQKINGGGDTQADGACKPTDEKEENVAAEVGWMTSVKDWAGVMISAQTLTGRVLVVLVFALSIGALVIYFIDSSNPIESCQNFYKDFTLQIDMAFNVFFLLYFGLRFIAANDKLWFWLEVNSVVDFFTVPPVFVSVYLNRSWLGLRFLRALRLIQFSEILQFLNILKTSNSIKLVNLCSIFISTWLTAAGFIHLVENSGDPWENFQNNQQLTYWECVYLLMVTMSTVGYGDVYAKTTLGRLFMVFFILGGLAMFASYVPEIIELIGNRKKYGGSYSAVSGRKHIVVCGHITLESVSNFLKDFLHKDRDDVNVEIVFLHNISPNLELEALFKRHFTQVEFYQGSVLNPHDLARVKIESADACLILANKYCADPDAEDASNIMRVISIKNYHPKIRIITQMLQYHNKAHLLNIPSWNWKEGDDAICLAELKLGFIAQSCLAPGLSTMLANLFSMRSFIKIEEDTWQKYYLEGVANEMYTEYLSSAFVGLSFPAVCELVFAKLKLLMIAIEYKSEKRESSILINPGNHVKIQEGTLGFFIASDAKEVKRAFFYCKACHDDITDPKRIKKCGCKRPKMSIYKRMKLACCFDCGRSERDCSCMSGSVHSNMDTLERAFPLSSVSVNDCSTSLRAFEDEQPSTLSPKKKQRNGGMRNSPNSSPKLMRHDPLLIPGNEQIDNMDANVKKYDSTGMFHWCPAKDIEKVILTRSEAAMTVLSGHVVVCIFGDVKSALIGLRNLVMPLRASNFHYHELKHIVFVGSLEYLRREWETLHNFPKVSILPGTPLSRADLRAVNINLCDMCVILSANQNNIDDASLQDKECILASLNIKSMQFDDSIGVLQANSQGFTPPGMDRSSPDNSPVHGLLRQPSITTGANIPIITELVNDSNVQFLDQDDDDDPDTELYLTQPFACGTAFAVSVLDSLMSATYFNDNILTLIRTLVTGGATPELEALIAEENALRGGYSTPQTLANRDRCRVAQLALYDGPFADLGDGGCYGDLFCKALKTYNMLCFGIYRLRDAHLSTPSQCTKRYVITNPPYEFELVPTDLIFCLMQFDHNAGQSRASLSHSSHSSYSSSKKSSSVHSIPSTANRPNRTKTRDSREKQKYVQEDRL
Method: Native SAKcaCs were recorded from ventricular myocytes, which were isolated from chick hearts as described previously ([12], [13], [37]).
(§1) Single-channel currents for SAKcaC were recorded under the standard excised inside–out patch configuration. Currents were amplified using an A&M amplifier (Model 2400) or an EPC10 patch-clamp amplifier (HEKA Elektronik). Data were filtered at 10 kHz. The standard pipette solution facing the extracellular surface of the patch contained (in millimolar): 145 potassium gluconate, 1 EGTA, 10 Hepes, and 5 glucose, pH 7.4 was adjusted with NaOH. The bath solution facing the cytoplasmic surface of the patch membrane was the same except the [Ca^2+]i concentration used was 1 mM ([13], [38]).
(§2) In brief, the normal pipette solution was first filled in the tips of the electrodes, and then the same solution containing the peptide was backfilled. […] All experiments were performed with standard inside–out patch configuration at room temperature (22–25 °C).
(§3) Single-channel conductances of SAKcaC and the STREX-del mutant channel were determined by the slope of current–voltage (I–V) curves, where I–V data could be well fitted with a linear function ([12], [54]). Amplitude histograms were measured in inside–out patches mostly with one to three channels. Histograms were fitted with a Gaussian function using pClampfit software (Molecular Devices Corp.). In the case when only one channel was contained in patches, channel open probability Po (%) was determined simply by driving the total open duration of the sum of the open and closed times in patches as described previously ([51], [55]). When multiple channels were presented in the patch, Po was determined using the area under each peak (aj) at each current level (j) in the histogram along with the number of channels (N):(1) Po=∑j=0n(j∗aj)/n×∑j=0Naj Where N is the channel number in each patch, which was defined from the maximum level observed at a relatively higher voltage of +80 mV under 1 mM [Ca^2+]i.

[3] = test system: STREX-del mutant channel (SAKcaC with STREX-exon removed); test: Single-channel inside-out patch clamp of mechano-insensitive STREX-del mutant channel expressed in CHO cells; assay type: cell-based, chick
Description: (§4) The SA BK (SAKca) channel (SAKcaC) gene was cloned from the complementary DNA (cDNA) library (GenBank accession number: AB072618) from chick embryonic hearts ([13]); this was further subcloned into mammalian expression vectors (pcDNA 3.1). SAKca STREX (stress axis–regulated exon) deletion mutation (STREX-Del) was verified by sequencing as published previously ([35], [51]). Cloned SAKcaC (SAKca-WT) or STREX-Del mutant cDNAs were transiently transfected in the CHO-K1 cells using the Lipofectamine 2000 Transfection Reagent (Thermo Fisher Scientific) according to the manufacturer’s protocol. To monitor the successfully transfected cells, pEGFP (Clontech Laboratories) was coexpressed with the SAKca-WT or STREX-Del channel cDNA (5:1, w/w). The transfected cells grown on the coverslip were used for patch-clamp recordings. No endogenous BK channel activity was detected in the untransfected CHO-K1 cells. Currents were normally recorded within 1 week after cDNA transfection ([13], [37], [38]).
Single-channel currents for SAKcaC were recorded under the standard excised inside–out patch configuration. […]
as §3, with “Histograms were fitted with a Gaussian function using pClampfit software (Molecular Devices Corp.).” left out

BK (mSlo1) channel = test: Macroscopic currents of regular BK (mSlo1) channel in excised inside-out patches from Xenopus laevis oocytes; assay type: cell-based, mouse; conditions: 10 μM peptide backfilled, 25 min, [Ca2+]i 100 μM, n = 4-6
Method: Macroscopic currents for regular BK (mSlo1) channels were recorded from Xenopus laevis oocytes by using standard excised inside–out patches. mSlo1 cDNA was a gift from the laboratory of Dr Christopher Lingle (Washington University), of which the vector pXMX was designed to promote […] expression ([12], [36], [52]). pClamp (Molecular Devices) was used to drive stimulus protocols and digitize currents as described previously ([51], [53]). The standard pipette (extracellular) solution contains (in millimolar): 140 KMES (methanesulfonate), 20 KOH, 10 Hepes, 2 MgCl2, and pH 7.0. The internal solution contains (in millimolar) 140 KMES, 20 KOH, 10 Hepes, 5 EGTA, and pH 7.0. The free intracellular [Ca^2+]i solution was buffered as described previously ([36], [52]).
as §2

[4] = target: T2, stretch-activated BK channel (SAKcaC) (Gallus gallus, UniProt Q8AYS8); test: Single-channel excised inside-out patch clamp of SAKcaC expressed in CHO-K1 cells, peptide backfilled in the pipette (extracellular side); assay type: cell-based, chick; conditions: Vm −80 mV, [Ca2+]i 1 mM
T2 construct: expressed in transfected cells; host or cells: CHO-K1, transient transfection of pcDNA 3.1 with Lipofectamine 2000; pEGFP co-expressed as a separate marker
T2 sequence (Q8AYS8 1-1195 isoform Q8AYS8-3): as above
Description: as §4, §1, §2
as §3, with “Histograms were fitted with a Gaussian function using pClampfit software (Molecular Devices Corp.).” left out

In the case of “GsMTx4 (GCLEFWWKCNPNDDKCCRPKLKCSKLFKLCNFSF; disulfide (positions not given here); ends not checked; UniProt Q7YT39 47-80, looked up) [reference compound]”, the “effect on STREX-del channel, in words” value [1] is given as “without effect”, the “slope factor K^−1 of Po–V relationship (Boltzmann fit)” value ([2]; 50 nM peptide) is given as 24.5 ± 1.63 and the “V1/2 of Po–V relationship (Boltzmann fit)” value ([2]; 50 nM peptide) is given as −47.2 ± 0.97 mV. For the same substance, the “channel open probability Po with 50 nM peptide” value ([2]; Vm −50 mV) was 47.1%, the “channel open probability Po with 100 nM peptide” value ([2]; Vm −50 mV) was 13.8% and the “channel open probability Po with 0 nM peptide (control of the dose series)” value ([2]; Vm −50 mV) was 73.6%. For the same substance, the “Hill cofactor of dose–response curve” value ([2]; Vm −50 mV) was 1.6 ± 0.47.

With “WKCNPNDDKC (disulfide 3-10 (inferred)) [Pept 02, 10-residue type II peptide derived from loop2 of GsMTx4]” the “effect on STREX-del mutant channel, in words” value ([3]; 10 μM peptide backfilled, −60 mV (Pept 02 also +30 mV), up to 25–30 min) was “not significantly altered”, the “V1/2 of Po–V relationship of STREX-del (Boltzmann fit)” value ([3]; 10 μM peptide, Po 25 min following backfilling, control (no peptide) −9.2 ± 2.3 mV, n = 4 to 9) was −5.7 ± 2.6 mV and the “slope factor K^−1 of Po–V relationship of STREX-del” value ([3]; 10 μM peptide, control (no peptide) 23.3 ± 2.8) was 22.5 ± 2.1. The “effect on regular BK (mSlo1) channel, in words” value (BK (mSlo1) channel) was “failed to inhibit”, the “inhibition of SAKcaC Po at +30 mV” value ([2]; 50 nM peptide, Vm +30 mV) was ~10.3% and the “inhibition of SAKcaC Po at −50 mV” value ([2]; 50 nM peptide, Vm −50 mV) was ~71.3%. For the same substance, the “slope factor K^−1 of Po–V relationship (Boltzmann fit)” value ([2]; 50 nM peptide) was 22.9 ± 1.11, the “V1/2 of Po–V relationship (Boltzmann fit)” value ([2]; 50 nM peptide) was −23.7 ± 1.06 mV and the “inhibition of SAKcaC at depolarized condition, in words” value ([2]; 10 μM peptide, Vm +30 mV) was “completely inhibited”. The “channel open probability Po with 50 nM peptide” value ([2]; Vm −50 mV) was 22.1%, the “channel open probability Po with 100 nM peptide” value ([2]; Vm −50 mV) was 6.8% and the “channel open probability Po with 0 nM peptide (control of the dose series)” value ([2]; Vm −50 mV) was 72.5%. The “Hill cofactor of dose–response curve” value ([2]; Vm −50 mV) was 1.8 ± 0.52, the “inhibitory effect on SAKcaC, in words” value ([4]; 5 μM peptide backfilled) was “enhanced inhibition (%)” and the “averaged diffusion/inhibitory rate (τ), single-exponential fit of Po time course” value ([4]; 5 μM peptide, mean ± SEM, at least four experiments, SEM) was 2.89 ± 0.16 min. The “channel open probability Po at 16 min following backfilling” value ([4]; 5 μM peptide, single sample patch) was 3.6% and the “channel open probability Po before peptide reaches the membrane (0 peptide, 2 min after backfilling)” value ([4]; baseline of the same patch, 5 μM peptide backfilled, 22–25 °C, single sample patch) was 42.9%.

From article PMC9449670, “Two types of peptides derived from the neurotoxin GsMTx4 inhibit a mechanosensitive potassium channel by modifying the mechanogate” (The Journal of Biological Chemistry, 2022)
